Results: ChEMBL document CHEMBL1135861, “The discovery of novel small molecule non-peptide gonadotropin releasing hormone (GnRH) receptor antagonists” (Bioorg Med Chem Lett, 2002)

How the values were obtained:
[1] = target: T1, Gonadotropin-releasing hormone receptor (Rattus norvegicus, UniProt P30969); experiment: Binding affinity to rat gonadotropin-releasing hormone receptor
T1 sequence (P30969 whole entry): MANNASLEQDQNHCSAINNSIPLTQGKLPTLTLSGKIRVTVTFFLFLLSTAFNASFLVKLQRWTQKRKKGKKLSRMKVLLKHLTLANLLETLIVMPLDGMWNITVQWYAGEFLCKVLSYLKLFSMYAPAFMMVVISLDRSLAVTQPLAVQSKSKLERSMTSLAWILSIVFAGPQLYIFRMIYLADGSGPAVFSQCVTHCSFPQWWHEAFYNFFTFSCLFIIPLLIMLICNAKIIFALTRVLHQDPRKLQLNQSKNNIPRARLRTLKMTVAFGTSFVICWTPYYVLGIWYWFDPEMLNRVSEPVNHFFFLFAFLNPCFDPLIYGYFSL

[2] = target: T2, Gonadotropin-releasing hormone receptor (Homo sapiens, UniProt P30968); experiment: In vitro binding affinity to human gonadotropin-releasing hormone receptor
T2 sequence (P30968 whole entry): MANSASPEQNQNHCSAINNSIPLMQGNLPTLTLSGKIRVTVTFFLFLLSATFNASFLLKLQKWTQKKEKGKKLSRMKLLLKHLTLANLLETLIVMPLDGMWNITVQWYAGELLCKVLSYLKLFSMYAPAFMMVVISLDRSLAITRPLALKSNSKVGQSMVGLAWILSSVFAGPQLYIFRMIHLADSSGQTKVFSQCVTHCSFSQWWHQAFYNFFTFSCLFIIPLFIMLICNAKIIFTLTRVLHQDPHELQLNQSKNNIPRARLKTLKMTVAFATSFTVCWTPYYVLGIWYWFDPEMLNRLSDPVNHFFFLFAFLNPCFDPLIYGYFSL

Row | SMILES | Ki [1] [nM] | Ki [2] [nM]
1 | Cc1cc2c(cc1Cc1ccc(C(=O)NCC3CCC(CN)CC3)o1)C(C)(C)CCC2(C)C (stereo not drawn) | 730 | 42
2 | Cc1cc2c(cc1Cc1ccc(C(=O)NC[C@H]3CC[C@H](CNC(=N)N)CC3)o1)C(C)(C)CCC2(C)C | 385 | 16
3 | Cc1cnc(CNC(=O)c2ccc(Cc3cc4c(cc3C)C(C)(C)CCC4(C)C)o2)cn1 | 55 | 56
4 | Cc1cc2c(cc1Cc1ccc(C(=O)NCC3CCNCC3)o1)C(C)(C)CCC2(C)C | 5210 | 700
5 | Cc1cc2c(cc1Cc1ccc(C(=O)NCC3CCN(C(=N)N)CC3)o1)C(C)(C)CCC2(C)C | 2040 | 220
6 | Cc1cc2c(cc1Cc1ccc(C(=O)NCC3CCC(C#N)CC3)o1)C(C)(C)CCC2(C)C (stereo not drawn) | 560 | 17
7 | Cc1cc2c(cc1Cc1ccc(C(=O)NCC3CCCC(CN)C3)o1)C(C)(C)CCC2(C)C (stereo not drawn) | 890 | 174
8 | Cc1cc2c(cc1Cc1ccc(C(=O)NC[C@H]3CC[C@@H](CNC(=N)N)CC3)o1)C(C)(C)CCC2(C)C | 730 | 40
9 | Cc1cc2c(cc1Cc1ccc(C(=O)NC[C@H]3CC[C@H](C(N)=O)CC3)o1)C(C)(C)CCC2(C)C | 270 | 13
10 | Cc1cc2c(cc1Cc1ccc(C(=O)NCc3ccc(CN)cc3)o1)C(C)(C)CCC2(C)C | 280 | 140
11 | Cc1cc2c(cc1Cc1ccc(C(=O)NCC3CCC(CNC(=N)N)CC3)o1)C(C)(C)CCC2(C)C (stereo not drawn) | 520 | 40
12 | Cc1cc2c(cc1Cc1ccc(C(=O)NC[C@H]3CC[C@H](C(=O)O)CC3)o1)C(C)(C)CCC2(C)C | 3000 | 250
13 | Cc1cc2c(cc1Cc1ccc(C(=O)NCC3CCN(C(=O)OC(C)(C)C)CC3)o1)C(C)(C)CCC2(C)C | 3260 | 54
14 | Cc1cc2c(cc1Cc1ccc(C(=O)NCC3CCC(CNCc4c(C)noc4C)CC3)o1)C(C)(C)CCC2(C)C (stereo not drawn) | 1200 | 180
15 | Cc1ccc(CNC(=O)c2ccc(Cc3cc4c(cc3C)C(C)(C)CCC4(C)C)o2)cc1 | 60 | 83
16 | Cc1cc2c(cc1Cc1ccc(C(=O)NCC3CCC(CNCc4cc(=O)[nH]c(=O)[nH]4)CC3)o1)C(C)(C)CCC2(C)C (stereo not drawn) | 865 | 24
17 | CCOC(=O)[C@H]1CC[C@H](CNC(=O)c2ccc(Cc3cc4c(cc3C)C(C)(C)CCC4(C)C)o2)CC1 | 2730 | 51
18 | Cc1cc2c(cc1Cc1ccc(C(=O)NCc3ccccc3)o1)C(C)(C)CCC2(C)C | 240 | 102
19 | Cc1cc2c(cc1Cc1ccc(C(=O)NCc3ccc(CN(C)C)cc3)o1)C(C)(C)CCC2(C)C | 140 | 79
20 | COC(=O)[C@H]1CC[C@H](CNC(=O)c2ccc(Cc3cc4c(cc3C)C(C)(C)CCC4(C)C)o2)CC1 | 830 | 24
21 | Cc1cc2c(cc1Cc1ccc(C(=O)NCC3CCC(CNC(=O)C(F)(F)F)CC3)o1)C(C)(C)CCC2(C)C (stereo not drawn) | 2720 | 66
22 | Cc1cc2c(cc1Cc1ccc(C(=O)NCc3cccc(CN)c3)o1)C(C)(C)CCC2(C)C | 94 | 91
23 | Cc1cc2c(cc1Cc1ccc(C(=O)NCC3CCCCC3)o1)C(C)(C)CCC2(C)C | 1550 | 180
24 | Cc1cc2c(cc1Cc1ccc(C(=O)NCC3CCCC(CNC(=O)C(F)(F)F)C3)o1)C(C)(C)CCC2(C)C (stereo not drawn) | 250 | 20
